Results: ChEMBL document CHEMBL3865792, “Antioxidant and antitumor activity of trolox, trolox succinate, and α-tocopheryl succinate conjugates with nitroxides” (Eur J Med Chem, 2016)

How the values were obtained:
[1] = Cytotoxicity against human U937 cells assessed as reduction in cell viability after 72 hrs by MTT assay; type: functional, cell-based; conditions: U-937, 72 h
[2] = Ratio of IC50 for human HEPG2 cells to concentration causing antioxidant activity in Salmonella typhimurium TA102 harboring […] mutant; type: functional
[3] = Cytotoxicity against human HepG2 cells assessed as reduction in cell viability at 300 uM after 72 hrs by MTT assay; type: functional; conditions: HepG2, 72 h
[4] = tested on: Salmonella enterica subsp. enterica serovar Typhimurium; assay: Antioxidant activity in Salmonella typhimurium TA102 harboring […] mutant assessed as inhibition of t-BuO2H-dependant mutant formation at 3 uM preincubated with compound followed by t-BuO2H addition after 48 hrs by Ames test; type: functional
[5] = Cytotoxicity against human HepG2 cells assessed as reduction in cell viability after 72 hrs by MTT assay; type: functional, cell-based; conditions: HepG2, 72 h
[6] = Ratio of IC50 for human MCF7 cells to concentration causing antioxidant activity in Salmonella typhimurium TA102 harboring […] mutant; type: functional
[7] = Cytotoxicity against human CEM13 cells assessed as reduction in cell viability after 72 hrs by MTT assay; type: functional, cell-based; conditions: CEM13, 72 h
[8] = Cytotoxicity against human MT4 cells assessed as reduction in cell viability after 72 hrs by MTT assay; type: functional, cell-based; conditions: MT4, 72 h
[9] = Ratio of IC50 for human U937 cells to concentration causing antioxidant activity in Salmonella typhimurium TA102 harboring […] mutant; type: functional, U-937
[10] = Cytotoxicity against human RPMI8226 cells assessed as reduction in cell viability after 72 hrs by MTT assay; type: functional, cell-based; conditions: RPMI-8226, 72 h
[11] = tested on: Salmonella enterica subsp. enterica serovar Typhimurium; assay: Antioxidant activity in Salmonella typhimurium TA102 harboring […] mutant assessed as inhibition of t-BuO2H-dependant mutant formation at 0.3 uM preincubated with compound followed by t-BuO2H addition after 48 hrs by Ames test; type: functional
[12] = Cytotoxicity against human MCF7 cells assessed as reduction in cell viability after 72 hrs by MTT assay; type: functional, cell-based; conditions: MCF7, 72 h
[13] = Cytotoxicity against hamster AG17-1 cells assessed as reduction in cell viability at 300 uM after 72 hrs by MTT assay; type: toxicity, cell-based, Cricetulus griseus; conditions: Chinese hamster, read-out: INH
[14] = Cytotoxicity against human MCF7 cells assessed as reduction in cell viability at 300 uM after 72 hrs by MTT assay; type: functional; conditions: MCF7, 72 h
[15] = Ratio of IC50 for human RPMI8226 cells to concentration causing antioxidant activity in Salmonella typhimurium TA102 harboring […] mutant; type: functional, RPMI-8226
[16] = Ratio of IC50 for human CEM13 cells to concentration causing antioxidant activity in Salmonella typhimurium TA102 harboring […] mutant; type: functional
[17] = Genotoxicity in Escherichia coli PQ37 expressing lacZ gene assessed as ratio of inducible beta-galactosidase activity to alkaline phosphatase activity at 3 mM after 2 hrs by SOS-chromotest relative to control; type: toxicity; conditions: Escherichia coli PQ37 cells expressing lacZ gene, read-out: FC
[18] = tested on: Salmonella enterica subsp. enterica serovar Typhimurium; assay: Antioxidant activity in Salmonella typhimurium TA102 harboring […] mutant assessed as inhibition of t-BuO2H-dependant mutant formation at 30 uM preincubated with compound followed by t-BuO2H addition after 48 hrs by Ames test; type: functional
[19] = Cytotoxicity against mouse LMTK cells assessed as reduction in cell viability after 72 hrs by MTT assay; type: toxicity
[20] = tested on: Salmonella typhimurium; assay: Genotoxicity in Salmonella typhimurium TA102 harboring […] mutant assessed as frequency of reversion from histidine auxotrophy to prototrophy at 30 mM after 48 hrs by Ames test (reference value: 209 +/- 10 No _unit); type: toxicity, organism-based; conditions: salmonella enterica subsp. enterica serovar typhimurium, 30000 µM
[21] = Cytotoxicity against hamster AG17-1 cells assessed as reduction in cell viability after 72 hrs by MTT assay; type: toxicity, cell-based, Cricetulus griseus; conditions: Chinese hamster
[22] = Cytotoxicity against human RPMI8226 cells assessed as reduction in cell viability at 300 uM after 72 hrs by MTT assay; type: functional; conditions: RPMI-8226, 72 h
[23] = Ratio of IC50 for human MT4 cells to concentration causing antioxidant activity in Salmonella typhimurium TA102 harboring […] mutant; type: functional
[24] = Cytotoxicity against mouse LMTK cells assessed as reduction in cell viability at 300 uM after 72 hrs by MTT assay; type: toxicity; conditions: read-out: INH
[25] = Genotoxicity in Escherichia coli PQ37 expressing lacZ gene assessed as ratio of inducible beta-galactosidase activity to alkaline phosphatase activity at 30 mM after 2 hrs by SOS-chromotest relative to control; type: toxicity; conditions: Escherichia coli PQ37 cells expressing lacZ gene, read-out: FC
[26] = Cytotoxicity against human CEM13 cells assessed as reduction in cell viability at 300 uM after 72 hrs by MTT assay; type: functional; conditions: CEM13, 72 h

Row | Structure (SMILES) | IC50 [1] | Ratio [2] | inhibition at 300 µM [3] | inhibition [4] | IC50 [5] | Ratio [6] | IC50 [7] | IC50 [8] | Ratio [9] | IC50 [10] | inhibition [11] | IC50 [12] | cytotoxicity at 72 h, 300 µM [13] | inhibition at 300 µM [14] | inhibition [18] | IC50 at 72 h [19] | Activity [20] | IC50 at 72 h [21] | inhibition at 300 µM [22] | cytotoxicity at 72 h, 300 µM [24] | other results
1 | CC1(C)CC(CNC(=O)CCC(=O)O)C(C)(C)N1[O] (stereo not drawn) | 282 µM | 100 - 1000 | 0% | 21% | > 300 µM | 100 - 1000 | > 400 µM | > 400 µM | 100 - 1000 | > 300 µM | 15% | > 300 µM | 0% | 24% | 11% | > 300 µM | 219 | > 300 µM | 13% | 0% | Ratio [15]: 100 - 1000; Ratio [16]: 100 - 1000; fold induction at 2 h, 3000 µM [17]: 1.3; Ratio [23]: 100 - 1000
2 | Cc1c(C)c2c(c(C)c1OC(=O)CCC(=O)NC1CC(C)(C)N([O])C(C)(C)C1)CC[C@@](C)(CCC[C@H](C)CCC[C@H](C)CCCC(C)C)O2 | 76 µM | 100 - 1000 | 5% | 29% | > 300 µM | 100 - 1000 | 146 µM | 53 µM | 100 - 1000 | > 300 µM | 24% | > 300 µM | 30% | 28% | 20% | > 300 µM | 222 | > 300 µM | 13% | 19% | fold induction at 2 h, 30000 µM [25]: 1.1; Ratio [15]: 100 - 1000; Ratio [16]: 100 - 1000; Ratio [23]: 100 - 1000
3 | CC1(C)CC(NC(=O)CCC(=O)O)C(C)(C)N1[O] (stereo not drawn) | 241 µM | 100 - 1000 | 0% | 48% | > 300 µM | 100 - 1000 | > 400 µM | > 400 µM | 100 - 1000 | > 300 µM | 38% | > 300 µM | 19% | 17% | 52% | > 300 µM | 199 | > 300 µM | 44% | 0% | Ratio [15]: 100 - 1000; Ratio [16]: 100 - 1000; fold induction at 2 h, 3000 µM [17]: 1.2; Ratio [23]: 100 - 1000
4 | Cc1c(C)c2c(c(C)c1OC(=O)CCC(=O)O)CCC(C)(C(=O)NC1CC(C)(C)N([O])C(C)(C)C1)O2 (stereo not drawn) | 123 µM | 100 - 1000 | 44% | 18% | > 300 µM | 100 - 1000 | > 300 µM | 165 µM | 100 - 1000 | > 300 µM | 10% | > 300 µM | 36% | 15% | 19% | > 300 µM | 216 | > 300 µM | 14% | 0% | inhibition at 300 µM [26]: 30%; fold induction at 2 h, 30000 µM [25]: 1.1; Ratio [15]: 100 - 1000; Ratio [16]: 100 - 1000; Ratio [23]: 100 - 1000
5 | Cc1c(C)c2c(c(C)c1O)CCC(C)(C(=O)O)O2 (stereo not drawn) [TROLOX] | 300 µM |  | 14% | 14.5% | > 300 µM |  | > 300 µM | 200 µM |  | > 300 µM | 8.8% | > 300 µM | 0% | 5% | 4.7% | > 300 µM | 230 | > 300 µM | 0% | 0% | inhibition at 300 µM [26]: 37%; fold induction at 2 h, 3000 µM [17]: 1
6 | Cc1c(C)c2c(c(C)c1OC(=O)CCC(=O)NC1CC(C)(C)N([O])C1(C)C)CCC(C)(C(=O)NC1CC(C)(C)N([O])C1(C)C)O2 (stereo not drawn) | 75 µM | 100 - 1000 | 15% | 20% | > 300 µM | 100 - 1000 | > 300 µM | 207 µM | 100 - 1000 | > 300 µM | 22% | 86 µM |  |  | 13% | > 300 µM | 229 | 166 µM | 0% | 10% | inhibition at 300 µM [26]: 34%; fold induction at 2 h, 30000 µM [25]: 1.1; Ratio [15]: 100 - 1000; Ratio [16]: 100 - 1000; Ratio [23]: 100 - 1000
7 | CC1(C)CC(NC(=O)CCC(=O)O)CC(C)(C)N1[O] | 170 µM | 100 - 1000 | 0% | 49% | > 300 µM | 100 - 1000 | > 400 µM | > 400 µM | 100 - 1000 | > 300 µM | 36% | > 300 µM | 0% | 20% | 41% | > 300 µM | 211 | > 300 µM | 12% | 18% | Ratio [15]: 100 - 1000; Ratio [16]: 100 - 1000; fold induction at 2 h, 3000 µM [17]: 1.3; Ratio [23]: 100 - 1000
